From US12522597B2, “Methods and compositions for modulating splicing” (Skyhawk Therapeutics, Inc., priority 2019, dated 2026)
Read-outs that look alike come from different tables or passages of the source.

What was measured:
[1] = test system: Huntingtin (HTT) transcripts; experiment: Quantitative splicing assay (HTT), qPCR; format: cell-based; details: Homo sapiens, GM04724 (CAG 70/20) Huntington's disease patient lymphoblasts, 24 h
Outline: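 Read-out is TaqMan qPCR on cDNA, quantifying inclusion of a cryptic exon within HTT intron 49. Cells were Huntington's patient lymphoblasts GM04724 (CAG 70/20), treated for 24 h at 0.15 nM–2.5 uM compound in 0.1% DMSO.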

MDR1 = experiment: MDCK-MDR1 permeability assay (BBB penetration potential); format: in vitro ADME; details: dog; for efflux ratio at 120 min, 5 μM: MDCK-MDR1, pH 7.4, MDCK-MDR1: Efflux; for Papp A→B at 120 min, 5 μM: MDCK-MDR1, pH 7.4, MDCK-MDR1: Papp A-B; for Papp B→A at 120 min, 5 μM: MDCK-MDR1, pH 7.4, MDCK-MDR1: Papp B-A
Experimental: (§1) Each determination is performed in duplicate. […] Analytical conditions are outlined below.

[2] = test system: MDR1-MDCK cell monolayers; experiment: as above; format: in vitro ADME; details: dog, MDCK-MDR1, 120 min, 5 μM, pH 7.4
Experimental: as §1

mHTT protein = mHTT protein assay (2B7-MW1, Mesoscale Discovery); format: cell-based, human; details: GM04724 (CAG 70/20) Huntington's disease patient lymphoblast cells, 48 hours, 2B7-MW1 MSD; read-out: HTT Potency - Protein EC50 mHTT (average)
Outline: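 mHTT levels were read with the 2B7-MW1 antibody pair (N17 and polyQ epitopes) on MSD after 48 h dosing, 10 μM–0.6 nM. Cells were GM04724 HD lymphoblasts (CAG 70/20). A replica plate was read by CTG for cell viability.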

[3] = qPCR HTTex49_50, read-out: HTT Potency - Splicing: E49-50 EC50 (average)
[4] = qPCR cryptic exon 49b inclusion, read-out: HTT Potency - Splicing: E49b EC50 (average)

Q: How did the EC50 [1, 3] turn out when `Oc1cc(-c2cn[nH]c2)ccc1-c1ccc(O[C@H]2C[C@@H]3CCC[C@@H](N3)[C@H]2F)nn1` (single isomer, unassigned) [40-ENT1] was run?
A: 0.01 to 15 nM

Q: And the EC50 [1, 4]?
A: 0.01 to 15 nM

Q: What about the efflux ratio at 120 min, 5 μM (MDR1) of the same compound?
A: 19

Q: What about the Papp A→B at 120 min, 5 μM (MDR1) of the same compound?
A: 2.67 ×10⁻⁶ cm/s

Q: And the Papp B→A at 120 min, 5 μM (MDR1)?
A: 49.9 ×10⁻⁶ cm/s

Q: And the “MDCK-MDR1: % Recov A-B” value [2]?
A: 83%

Q: What about the “MDCK-MDR1: % Recov B-A” value [2] of the same compound?
A: 85%

Q: And the EC50 (mHTT protein)?
A: 0.01 to 15 nM

Q: Which EC50 [1, 3] does the source give for `Cn1ccc2cc(-c3ccc(O[C@H]4C[C@]5(C)CCC[C@@](C)(N5)[C@H]4F)nn3)c(O)cc2c1=O` (single isomer, unassigned) [156-ENT2] here?
A: 16 to 50 nM

Q: What about the EC50 [1, 4] of the same compound?
A: 16 to 50 nM

Q: What about the efflux ratio at 120 min, 5 μM (MDR1) of the same compound?
A: 9

Q: What about the Papp A→B at 120 min, 5 μM (MDR1) of the same compound?
A: 4.9 ×10⁻⁶ cm/s

Q: What about the Papp B→A at 120 min, 5 μM (MDR1) of the same compound?
A: 46.3 ×10⁻⁶ cm/s

Q: What about the “MDCK-MDR1: % Recov A-B” value [2] of the same compound?
A: 80%

Q: What about the “MDCK-MDR1: % Recov B-A” value [2] of the same compound?
A: 99%

Q: And the EC50 (mHTT protein)?
A: 0.01 to 15 nM

Q: Which results are given for `Cn1cc(-c2cc(O)c(-c3ccc(O[C@@H]4C[C@H]5CCC[C@H](N5)[C@@H]4F)nn3)cn2)cn1` (single isomer, unassigned) [64-ENT1]?
A: EC50 [1, 3]: 501 to 10000 nM; EC50 [1, 4]: 501 to 10000 nM; efflux ratio at 120 min, 5 μM (MDR1): 68; Papp A→B at 120 min, 5 μM (MDR1): 0.18 ×10⁻⁶ cm/s; Papp B→A at 120 min, 5 μM (MDR1): 12.4 ×10⁻⁶ cm/s; MDCK-MDR1: % Recov A-B [2]: 99%; MDCK-MDR1: % Recov B-A [2]: 101%; EC50 (mHTT protein): 501 to 10000 nM

Q: What does the source list for `Cn1ccc(-c2ccc(-c3ccc(O[C@H]4C[C@@H]5CCC[C@@H](N5)[C@H]4F)nn3)c(O)c2)cc1=O` (single isomer, unassigned) [54-ENT2]?
A: EC50 [1, 3]: 16 to 50 nM; EC50 [1, 4]: 16 to 50 nM; efflux ratio at 120 min, 5 μM (MDR1): 34; Papp A→B at 120 min, 5 μM (MDR1): 1.8 ×10⁻⁶ cm/s; Papp B→A at 120 min, 5 μM (MDR1): 61.9 ×10⁻⁶ cm/s; MDCK-MDR1: % Recov A-B [2]: 101%; MDCK-MDR1: % Recov B-A [2]: 107%; EC50 (mHTT protein): 16 to 50 nM

Q: For `Cn1ccc2cc(O)c(-c3ccc(O[C@@H]4C[C@H]5CC[C@H](N5)[C@@H]4F)nn3)cc2c1=O` (single isomer, unassigned) [129-ENT2], which EC50 [1, 3] is on record?
A: 51 to 100 nM

Q: What about the EC50 [1, 4] of the same compound?
A: 16 to 50 nM

Q: What about the efflux ratio at 120 min, 5 μM (MDR1) of the same compound?
A: 9

Q: What about the Papp A→B at 120 min, 5 μM (MDR1) of the same compound?
A: 4.94 ×10⁻⁶ cm/s

Q: And the Papp B→A at 120 min, 5 μM (MDR1)?
A: 45.7 ×10⁻⁶ cm/s

Q: And the “MDCK-MDR1: % Recov A-B” value [2]?
A: 72%

Q: What about the “MDCK-MDR1: % Recov B-A” value [2] of the same compound?
A: 79%

Q: And the EC50 (mHTT protein)?
A: 0.01 to 15 nM

Q: For `COc1cc(-c2ccc(-c3ccc(O[C@@H]4C[C@@]5(C)CC[C@](C)(N5)[C@@H]4F)nn3)c(O)c2)cnn1` (single isomer, unassigned) [157-ENT1], which EC50 [1, 3] is on record?
A: 16 to 50 nM

Q: And the EC50 [1, 4]?
A: 16 to 50 nM

Q: And the efflux ratio at 120 min, 5 μM (MDR1)?
A: 6

Q: And the Papp A→B at 120 min, 5 μM (MDR1)?
A: 6.28 ×10⁻⁶ cm/s

Q: What about the Papp B→A at 120 min, 5 μM (MDR1) of the same compound?
A: 35.7 ×10⁻⁶ cm/s

Q: And the “MDCK-MDR1: % Recov A-B” value [2]?
A: 77%

Q: And the “MDCK-MDR1: % Recov B-A” value [2]?
A: 84%

Q: And the EC50 (mHTT protein)?
A: 16 to 50 nM

Q: With `Cn1ccc(-c2ccc(-c3ccc(O[C@H]4C[C@@H]5CCC[C@@H](N5)[C@H]4F)nn3)c(O)c2)n1` (single isomer, unassigned) [68-ENT2] as the compound, how does the EC50 [1, 3] read?
A: 16 to 50 nM

Q: And the EC50 [1, 4]?
A: 16 to 50 nM

Q: What about the efflux ratio at 120 min, 5 μM (MDR1) of the same compound?
A: 4

Q: And the Papp A→B at 120 min, 5 μM (MDR1)?
A: 8.23 ×10⁻⁶ cm/s

Q: And the Papp B→A at 120 min, 5 μM (MDR1)?
A: 31.6 ×10⁻⁶ cm/s

Q: And the “MDCK-MDR1: % Recov A-B” value [2]?
A: 76%

Q: What about the “MDCK-MDR1: % Recov B-A” value [2] of the same compound?
A: 89%

Q: And the EC50 (mHTT protein)?
A: 101 to 500 nM

Q: `Cc1ncc(-c2ccc(-c3ccc(O[C@@H]4C[C@H]5CCC[C@H](N5)[C@@H]4F)nn3)c(O)c2)o1` (single isomer, unassigned) [93-ENT1] was tested. Which EC50 [1, 3] did it give?
A: 16 to 50 nM

Q: And the EC50 [1, 4]?
A: 16 to 50 nM

Q: What about the efflux ratio at 120 min, 5 μM (MDR1) of the same compound?
A: 4

Q: What about the Papp A→B at 120 min, 5 μM (MDR1) of the same compound?
A: 8.72 ×10⁻⁶ cm/s

Q: And the Papp B→A at 120 min, 5 μM (MDR1)?
A: 38.7 ×10⁻⁶ cm/s

Q: What about the “MDCK-MDR1: % Recov A-B” value [2] of the same compound?
A: 75%

Q: What about the “MDCK-MDR1: % Recov B-A” value [2] of the same compound?
A: 78%

Q: And the EC50 (mHTT protein)?
A: 16 to 50 nM

Q: How did the EC50 [1, 3] turn out when `Cn1ccc2cc(O)c(-c3ccc(O[C@@H]4C[C@@]5(C)CC[C@](C)(N5)[C@@H]4F)nn3)cc2c1=O` (single isomer, unassigned) [130-ENT2] was run?
A: 16 to 50 nM

Q: And the EC50 [1, 4]?
A: 16 to 50 nM

Q: What about the efflux ratio at 120 min, 5 μM (MDR1) of the same compound?
A: 5

Q: And the Papp A→B at 120 min, 5 μM (MDR1)?
A: 9.9 ×10⁻⁶ cm/s

Q: What about the Papp B→A at 120 min, 5 μM (MDR1) of the same compound?
A: 49.6 ×10⁻⁶ cm/s

Q: And the “MDCK-MDR1: % Recov A-B” value [2]?
A: 78%

Q: And the “MDCK-MDR1: % Recov B-A” value [2]?
A: 79%

Q: What about the EC50 (mHTT protein) of the same compound?
A: 0.01 to 15 nM

Q: Which EC50 [1, 3] does the source give for `Oc1cc(-n2cccn2)ccc1-c1ccc(O[C@H]2C[C@@H]3CC[C@@H](N3)[C@H]2F)nn1` (single isomer, unassigned) [35-ENT2] here?
A: 101 to 500 nM

Q: And the EC50 [1, 4]?
A: 101 to 500 nM

Q: And the efflux ratio at 120 min, 5 μM (MDR1)?
A: 4

Q: What about the Papp A→B at 120 min, 5 μM (MDR1) of the same compound?
A: 6.25 ×10⁻⁶ cm/s

Q: What about the Papp B→A at 120 min, 5 μM (MDR1) of the same compound?
A: 24 ×10⁻⁶ cm/s

Q: And the “MDCK-MDR1: % Recov A-B” value [2]?
A: 62%

Q: And the “MDCK-MDR1: % Recov B-A” value [2]?
A: 68%

Q: What about the EC50 (mHTT protein) of the same compound?
A: 51 to 100 nM

Q: Which results are given for `Cn1cc(-c2cc(O)c(-c3ccc(O[C@H]4C[C@@H]5CC[C@@H](N5)[C@H]4F)nn3)cc2F)cn1` (single isomer, unassigned) [61-ENT2]?
A: EC50 [1, 3]: 16 to 50 nM; EC50 [1, 4]: 0.01 to 15 nM; efflux ratio at 120 min, 5 μM (MDR1): 3; Papp A→B at 120 min, 5 μM (MDR1): 4.5 ×10⁻⁶ cm/s; Papp B→A at 120 min, 5 μM (MDR1): 12.2 ×10⁻⁶ cm/s; MDCK-MDR1: % Recov A-B [2]: 36%; MDCK-MDR1: % Recov B-A [2]: 71%; EC50 (mHTT protein): 0.01 to 15 nM

Q: How did the EC50 [1, 3] turn out when `Cn1ccc(-c2ccc(-c3ccc(O[C@@H]4C[C@H]5CCC[C@H](N5)[C@@H]4F)nn3)c(O)c2)n1` (single isomer, unassigned) [68-ENT1] was run?
A: 16 to 50 nM

Q: And the EC50 [1, 4]?
A: 16 to 50 nM

Q: And the efflux ratio at 120 min, 5 μM (MDR1)?
A: 6

Q: What about the Papp A→B at 120 min, 5 μM (MDR1) of the same compound?
A: 8.61 ×10⁻⁶ cm/s

Q: And the Papp B→A at 120 min, 5 μM (MDR1)?
A: 51.9 ×10⁻⁶ cm/s

Q: And the “MDCK-MDR1: % Recov A-B” value [2]?
A: 87%

Q: And the “MDCK-MDR1: % Recov B-A” value [2]?
A: 79%

Q: What about the EC50 (mHTT protein) of the same compound?
A: 16 to 50 nM

Q: What does the source list for `Cn1cc(-c2cc(O)c(-c3ccc(O[C@H]4C[C@@H]5CCC[C@@H](N5)[C@H]4F)nn3)cn2)cn1` (single isomer, unassigned) [64-ENT2]?
A: EC50 [1, 3]: 501 to 10000 nM; EC50 [1, 4]: 501 to 10000 nM; efflux ratio at 120 min, 5 μM (MDR1): 50; Papp A→B at 120 min, 5 μM (MDR1): 0.21 ×10⁻⁶ cm/s; Papp B→A at 120 min, 5 μM (MDR1): 10.7 ×10⁻⁶ cm/s; MDCK-MDR1: % Recov A-B [2]: 92%; MDCK-MDR1: % Recov B-A [2]: 97%; EC50 (mHTT protein): 501 to 10000 nM
